Results published in paper PMC8820820, “Feasibility and safety of targeting mitochondria for cancer therapy – preclinical characterization of gamitrinib, a first-in-class, mitochondriaL-targeted small molecule Hsp90 inhibitor” (Cancer Biology & Therapy, 2022).

Experiments:
Kv4.3/KChIP2 = target: T1, Kv4.3/KChIP2 (Homo sapiens, UniProt Q9UK17); test: Ion channel screening; type: cell-based; conditions: 10 µM
T1 sequence (Q9UK17 1-655): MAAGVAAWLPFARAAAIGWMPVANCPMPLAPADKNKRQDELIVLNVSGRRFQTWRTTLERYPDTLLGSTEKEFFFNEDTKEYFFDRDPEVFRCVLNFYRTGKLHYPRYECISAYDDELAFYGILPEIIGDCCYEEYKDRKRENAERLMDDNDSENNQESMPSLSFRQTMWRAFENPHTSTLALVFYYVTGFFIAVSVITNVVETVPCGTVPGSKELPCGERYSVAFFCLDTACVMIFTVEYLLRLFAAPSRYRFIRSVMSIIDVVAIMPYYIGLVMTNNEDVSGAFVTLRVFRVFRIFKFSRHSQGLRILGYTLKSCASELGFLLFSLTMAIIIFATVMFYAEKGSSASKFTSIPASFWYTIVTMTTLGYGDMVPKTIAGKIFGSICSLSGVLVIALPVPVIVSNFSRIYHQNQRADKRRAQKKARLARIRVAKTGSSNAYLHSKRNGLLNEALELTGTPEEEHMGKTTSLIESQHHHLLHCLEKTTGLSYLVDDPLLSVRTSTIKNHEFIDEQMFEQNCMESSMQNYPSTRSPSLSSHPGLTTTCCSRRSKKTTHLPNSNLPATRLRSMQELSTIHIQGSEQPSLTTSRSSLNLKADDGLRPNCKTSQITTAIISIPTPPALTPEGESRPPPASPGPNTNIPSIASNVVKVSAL
T1 sequence (Q9NS61 1-270 partner): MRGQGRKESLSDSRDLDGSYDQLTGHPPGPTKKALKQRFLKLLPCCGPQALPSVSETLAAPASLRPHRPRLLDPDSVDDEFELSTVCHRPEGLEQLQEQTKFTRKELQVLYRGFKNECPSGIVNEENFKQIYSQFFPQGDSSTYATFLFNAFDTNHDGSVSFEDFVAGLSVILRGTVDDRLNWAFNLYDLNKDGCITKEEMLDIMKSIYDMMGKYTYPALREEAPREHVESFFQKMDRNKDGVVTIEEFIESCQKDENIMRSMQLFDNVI
Text: Ion channel screening. […] The parameters measured were the maximum inward current evoked on stepping to -20 mV from the 1st and 26th pulse. Human Kv4.3/KChIP2 currents were evoked from a holding potential of -80 mV by a series of four 500 msec pulses to 0 mV using a 1000 msec interval between pulses. The parameter measured was the amplitude of the outward current 50 msec after the onset of the 4th voltage step to 0 mV. […] Human Kv1.5 currents were evoked by a single pulse from a holding potential of -80 mV to a potential of 0 mV for 4 sec before returning to -80 mV. The parameters measured were the maximum amplitude of outward currents evoked at the beginning of the voltage pulse and at the end of the voltage step from -80 mV to 0 mV. Human KCNQ1/minK currents were evoked by a single pulse delivered from a holding potential of -80 mV to +60 mV for 4 sec before returning to -80 mV. The parameter measured was the maximum outward current evoked on stepping to +60 mV from the holding potential of -80 mV. hERG currents were evoked by a three-pulse protocol where voltage was first stepped to +40 mV for two sec from a holding potential of –80 mV to inactivate hERG channels. […] The parameter measured was the maximum inward current evoked upon stepping to -110 mV from the holding potential of -30 mV. […]

CYP2A6 = target: T2, CYP2A6 (Homo sapiens, UniProt P11509); conditions: microsomes
T2 sequence (P11509 1-494): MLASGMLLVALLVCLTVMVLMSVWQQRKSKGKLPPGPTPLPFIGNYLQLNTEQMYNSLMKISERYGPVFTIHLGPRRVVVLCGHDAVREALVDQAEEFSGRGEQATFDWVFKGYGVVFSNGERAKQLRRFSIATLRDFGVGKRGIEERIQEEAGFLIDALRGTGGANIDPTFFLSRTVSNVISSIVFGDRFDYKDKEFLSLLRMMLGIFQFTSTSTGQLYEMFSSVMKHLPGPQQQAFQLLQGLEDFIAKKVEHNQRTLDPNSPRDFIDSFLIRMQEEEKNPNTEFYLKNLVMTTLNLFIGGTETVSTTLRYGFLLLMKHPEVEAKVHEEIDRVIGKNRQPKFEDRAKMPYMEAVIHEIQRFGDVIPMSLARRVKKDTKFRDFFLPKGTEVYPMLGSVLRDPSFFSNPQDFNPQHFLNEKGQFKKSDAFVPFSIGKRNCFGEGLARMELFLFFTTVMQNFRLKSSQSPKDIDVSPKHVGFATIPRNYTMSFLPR
Procedure: (§1) CYP inhibition in liver microsomes. […] Samples were analyzed for metabolite formation by LC-MS/MS. The results were expressed using the peak area ratio of analyte to internal standard, based on the calibration curves.
(§2) Where Range=fitted uninhibited value, s=slope factor, x=inhibitor concentration, y=% control activity.

tumor = conditions: mice; cited from earlier work
CYP3A4 = CYP3A4 (Homo sapiens, UniProt P08684); conditions: microsomes
Sequence of CYP3A4 (P08684 whole entry): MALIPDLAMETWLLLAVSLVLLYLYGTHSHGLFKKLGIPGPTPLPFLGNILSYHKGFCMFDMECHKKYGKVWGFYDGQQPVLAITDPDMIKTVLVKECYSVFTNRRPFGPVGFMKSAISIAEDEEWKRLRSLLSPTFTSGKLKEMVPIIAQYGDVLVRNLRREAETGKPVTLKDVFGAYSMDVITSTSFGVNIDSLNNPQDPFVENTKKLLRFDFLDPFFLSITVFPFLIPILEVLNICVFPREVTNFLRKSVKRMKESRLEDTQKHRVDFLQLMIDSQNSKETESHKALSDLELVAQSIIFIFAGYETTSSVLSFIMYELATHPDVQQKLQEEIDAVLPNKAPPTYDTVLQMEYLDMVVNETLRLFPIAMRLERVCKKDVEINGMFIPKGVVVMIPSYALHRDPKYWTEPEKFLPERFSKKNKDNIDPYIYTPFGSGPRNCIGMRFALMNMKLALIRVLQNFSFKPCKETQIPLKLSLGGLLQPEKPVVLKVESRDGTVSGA
Procedure: as §1, §2

Sprague-Dawley rats = test: Toxicity in Sprague-Dawley rats; type: in vivo; conditions: for reduction in mean body weights: male rats, fully recoverable, not adverse
Procedure: Ninety-six male and female Sprague-Dawley rats (6–7 weeks old) were received from Charles River Laboratories (Raleigh, NC) catheterized via a femoral vein prior to arrival. Animals were acclimated in individual stainless-steel cages with access to water and Certified Rodent Diet #2014 C (Envigo RMS) ad libitum for 6 d prior to study initiation. Environmental controls were set to maintain a temperature range of 20 to 26°C, a relative humidity range of 30 to 70%, eight or greater air changes/h, and a 12-h light/dark cycle. Animals were infused with sterile isotonic (0.9%) saline for a minimum of 4 d (0.20 mL/h for males or 0.15 mL/h for females) during the predose phase. At initiation of dosing, animals were 8 to 9 weeks old, and body weights ranged from 283 to 341 g for males and 188 to 238 g for females. Gamitrinib formulated as indicated above was administered by IV infusion on d 4, 8, 11, 15, 18, 22, 25, and 29 of the dosing phase at 1, 10, 25 mg/kg/dose and dose volume of 5 mL/kg. The vehicle control administered with the same schedule contained 2.5% DMSO, 0.125% polysorbate 80, 0.031% lecithin, 1.25% sucrose and 4.375% dextrose. Animals were checked twice daily throughout the duration of the study for mortality, abnormalities, and signs of pain or distress. Detailed observations were conducted for each animal up to two times during the predose phase and for each toxicity animal prior to dosing on d 1, 8, 15, 22, and 29 of the dosing phase and on d 1, 7, and 14 of the recovery phase. Blood samples were collected on d. 1, 4 and 29 of the dosing phase 5 min, 1 h and 24 h post-dose, maintained on chilled cryoracks and centrifuged within 1 h of collection. Tissue samples harvested from each animal were embedded in paraffin, sectioned, and slides were prepared and stained with hematoxylin and eosin.

CYP2C9 = CYP2C9 (Homo sapiens, UniProt P11712); conditions: microsomes
Sequence of CYP2C9 (P11712 whole entry): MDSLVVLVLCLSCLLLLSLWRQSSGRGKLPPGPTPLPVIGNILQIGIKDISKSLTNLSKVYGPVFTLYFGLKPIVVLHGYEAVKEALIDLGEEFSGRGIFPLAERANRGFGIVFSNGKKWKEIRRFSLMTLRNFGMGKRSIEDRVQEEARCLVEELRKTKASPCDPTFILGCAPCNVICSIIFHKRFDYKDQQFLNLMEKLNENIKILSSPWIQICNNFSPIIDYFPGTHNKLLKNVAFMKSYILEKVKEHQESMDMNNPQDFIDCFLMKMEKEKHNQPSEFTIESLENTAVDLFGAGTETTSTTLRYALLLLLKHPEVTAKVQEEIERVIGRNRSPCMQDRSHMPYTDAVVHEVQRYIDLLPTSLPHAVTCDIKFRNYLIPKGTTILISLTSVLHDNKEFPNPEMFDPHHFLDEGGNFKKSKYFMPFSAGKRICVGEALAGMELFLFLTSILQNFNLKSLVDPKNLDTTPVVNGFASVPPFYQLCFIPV
Procedure: as §1, §2

## COC1C=CC=C(C)C(=O)NC2=CC(=O)C(NCCCCCC[P+](c3ccccc3)(c3ccccc3)c3ccccc3)=C(CC(C)CC(OC)C(O)C(C)C=C(C)C1OC(N)=O)C2=O.F[P-](F)(F)(F)(F)F (stereo not shown) [Gamitrinib]
Kv4.3/KChIP2
  inhibition of Kv4.3/KChIP2 currents: 6.8 ± 2.2%
CYP2A6
  IC50: 24000 nM
tumor
  therapeutically effective dose: 10 mg/kg
CYP3A4
  IC50: 120 to 200 nM
Sprague-Dawley rats; 10 mg/kg/dose
  reduction in mean body weights: −5.5%
Sprague-Dawley rats; 25 mg/kg/dose
  reduction in mean body weights: −5.7%
Sprague-Dawley rats; rats
  urinalysis and ophthalmic findings: No effects on urinalysis or ophthalmic changes
Sprague-Dawley rats; rats, 25 mg/kg/dose
  serum urea nitrogen (UN) and creatinine concentrations: Minimally to mildly higher
Sprague-Dawley rats; rats, 25 mg/kg/dose, persisted to end of recovery
  kidney microscopic findings: tubular degeneration/regeneration
Sprague-Dawley rats; rats, IV twice weekly for 29 d
  non-observed adverse effect level (NOAEL): 1 mg/kg/dose
  severely toxic dose in 10% of the animals (STD 10): 10 mg/kg/dose
Sprague-Dawley rats; rats, highest dose level tested
  alterations in clinical chemistry parameters: mildly to moderately higher neutrophil, and platelet (Plts) counts, minimally prolonged partial thromboplastin time (PT), lower albumin, higher globulin, and alkaline phosphatase concentrations
Sprague-Dawley rats; rats, ≥10 mg/kg/dose
  Gamitrinib-related clinical observations: inguinal swelling, piloerection, hypoactivity, and sensitivity to touch at the infusion site
Sprague-Dawley rats; rats, ≥10 mg/kg/dose, both sexes, persisted through recovery
  microscopic findings at infusion site: mixed cell inflammation at the catheter/infusion site
Sprague-Dawley rats; toxicity animals, 10 mg/kg/dose
  Gamitrinib-related mortality: one male
Sprague-Dawley rats; toxicity animals, 25 mg/kg/dose, severe inflammation and marked hemorrhage at infusion site
  Gamitrinib-related mortality: two males, one female
Sprague-Dawley rats; toxicokinetic animals, 10 mg/kg/dose
  Gamitrinib-related mortality: two toxicokinetic females
Sprague-Dawley rats; toxicokinetic animals, 25 mg/kg/dose
  Gamitrinib-related mortality: one toxicokinetic female
CYP2C9
  IC50: 1100 nM
